Assays:
L-selectin = target: T1, L-selectin (Homo sapiens, UniProt P14151); test: Inhibitory activity against L-selectin IgG chimeras binding to sLex coating 96 wells using competitive cell-free ELISA assay was determined.
T1 sequence (P14151 whole entry): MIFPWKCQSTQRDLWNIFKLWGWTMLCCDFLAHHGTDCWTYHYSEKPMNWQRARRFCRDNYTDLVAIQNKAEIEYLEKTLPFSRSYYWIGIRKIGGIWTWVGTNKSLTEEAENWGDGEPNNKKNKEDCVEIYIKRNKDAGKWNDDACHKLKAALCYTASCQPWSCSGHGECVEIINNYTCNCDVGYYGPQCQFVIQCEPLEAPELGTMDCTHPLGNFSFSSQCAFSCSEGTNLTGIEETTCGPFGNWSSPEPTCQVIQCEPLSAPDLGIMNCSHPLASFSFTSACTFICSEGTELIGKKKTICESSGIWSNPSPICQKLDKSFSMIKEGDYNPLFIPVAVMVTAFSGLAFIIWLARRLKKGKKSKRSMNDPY

P-selectin = target: T2, P-selectin (Homo sapiens, UniProt P16109); test: Inhibitory activity against P-selectin IgG chimeras binding to sLex coating 96 wells using competitive cell-free ELISA assay was determined.
T2 sequence (P16109 whole entry): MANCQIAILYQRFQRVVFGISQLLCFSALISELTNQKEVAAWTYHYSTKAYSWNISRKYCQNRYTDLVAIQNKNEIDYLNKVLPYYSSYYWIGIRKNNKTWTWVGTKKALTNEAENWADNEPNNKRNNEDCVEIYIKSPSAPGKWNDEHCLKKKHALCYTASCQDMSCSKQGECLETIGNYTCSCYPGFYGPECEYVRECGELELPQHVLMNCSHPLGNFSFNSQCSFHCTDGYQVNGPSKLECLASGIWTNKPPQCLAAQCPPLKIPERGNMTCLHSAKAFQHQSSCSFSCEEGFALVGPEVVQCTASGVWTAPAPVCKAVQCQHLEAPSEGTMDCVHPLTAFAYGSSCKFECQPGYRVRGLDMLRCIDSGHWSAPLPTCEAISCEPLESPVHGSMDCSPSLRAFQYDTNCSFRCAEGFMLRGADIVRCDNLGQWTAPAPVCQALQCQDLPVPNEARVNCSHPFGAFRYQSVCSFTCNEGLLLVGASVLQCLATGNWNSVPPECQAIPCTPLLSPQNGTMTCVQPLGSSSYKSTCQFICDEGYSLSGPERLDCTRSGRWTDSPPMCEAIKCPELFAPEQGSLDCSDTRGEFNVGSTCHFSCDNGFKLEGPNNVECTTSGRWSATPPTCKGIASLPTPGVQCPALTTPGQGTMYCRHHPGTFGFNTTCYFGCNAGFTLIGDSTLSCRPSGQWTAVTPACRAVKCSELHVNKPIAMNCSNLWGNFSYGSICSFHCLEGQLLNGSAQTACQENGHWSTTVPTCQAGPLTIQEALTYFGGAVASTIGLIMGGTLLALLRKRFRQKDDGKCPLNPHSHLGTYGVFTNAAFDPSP

E-selectin = target: T3, E-selectin (Homo sapiens, UniProt P16581); test: Inhibitory activity against Selectin E IgG chimeras binding to sLex coating 96 wells using competitive cell-free ELISA assay was determined.
T3 sequence (P16581 whole entry): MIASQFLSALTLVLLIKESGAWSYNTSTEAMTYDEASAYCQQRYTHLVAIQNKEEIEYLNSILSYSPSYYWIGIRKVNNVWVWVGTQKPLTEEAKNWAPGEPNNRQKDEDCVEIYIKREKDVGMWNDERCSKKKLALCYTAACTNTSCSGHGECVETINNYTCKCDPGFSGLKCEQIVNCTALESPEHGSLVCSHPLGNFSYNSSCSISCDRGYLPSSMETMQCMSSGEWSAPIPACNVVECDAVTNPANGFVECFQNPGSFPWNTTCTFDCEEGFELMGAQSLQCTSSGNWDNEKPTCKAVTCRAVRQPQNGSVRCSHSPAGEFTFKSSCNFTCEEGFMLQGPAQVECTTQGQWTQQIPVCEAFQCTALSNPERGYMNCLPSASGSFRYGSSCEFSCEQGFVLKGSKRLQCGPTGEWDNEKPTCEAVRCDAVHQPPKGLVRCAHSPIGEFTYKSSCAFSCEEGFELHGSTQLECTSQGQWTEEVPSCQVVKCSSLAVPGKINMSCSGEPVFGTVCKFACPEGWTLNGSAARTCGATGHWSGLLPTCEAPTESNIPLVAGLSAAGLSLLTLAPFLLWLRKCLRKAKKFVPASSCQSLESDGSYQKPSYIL

SMILES	IC50 (L-selectin)	IC50 (P-selectin)	IC50 (E-selectin)
COc1ccc(CCCC(=O)O)cc1C1OC(C)C(O)C(O)C1O (stereo unspecified)	170 µM	5 µM	> 1000 µM
COc1cc(CC(=O)O)c(C2OC(C)C(O)C(O)C2O)c(OC)c1OC (stereo unspecified)	114 µM	40 µM	> 1000 µM
COc1ccc(C2(C(=O)O)CCCCC2)cc1[C@H]1O[C@@H](C)[C@H](O)[C@H](O)[C@@H]1O	35 µM	22 µM	> 1000 µM
COc1ccc(C2(C(=O)O)CCCCC2)cc1[C@H]1O[C@@H](C)[C@@H](O)[C@H](O)[C@@H]1O	106 µM	7 µM	> 1000 µM

Compounds with a lower IC50 (L-selectin), results first:

IC50 (L-selectin)	IC50 (P-selectin)	IC50 (E-selectin)	SMILES
11 µM	8 µM	> 1000 µM	COc1ccc(C2(C(=O)O)CCCCC2)cc1C1OCC(O)C(O)C1O (stereo unspecified)
3 µM	1 µM	> 1000 µM	COc1ccc(CC(=O)O)cc1C1OC(C)C(O)C(O)C1O (stereo unspecified)
1 µM	3 µM	> 1000 µM	COc1ccc(C2(C(=O)O)CCCCC2)cc1C1OC(CO)C(O)C(O)C1O (stereo unspecified)

From ChEMBL document CHEMBL1130683, “Aryl C-glycosides: physiologically stable glycomimetics of sialyl Lewis X” (Bioorg Med Chem Lett, 1998)
